Target: T1, gastrin (CCK2) receptors (Rattus norvegicus, UniProt P30553)
T1 construct: The stomach was excised and flushed with ca. 1 ml of unbuffered physiological saline solution; from tissue; host or cells: isolated whole stomach of immature rats (ca. 21 days old)
T1 sequence (P30553 1-452): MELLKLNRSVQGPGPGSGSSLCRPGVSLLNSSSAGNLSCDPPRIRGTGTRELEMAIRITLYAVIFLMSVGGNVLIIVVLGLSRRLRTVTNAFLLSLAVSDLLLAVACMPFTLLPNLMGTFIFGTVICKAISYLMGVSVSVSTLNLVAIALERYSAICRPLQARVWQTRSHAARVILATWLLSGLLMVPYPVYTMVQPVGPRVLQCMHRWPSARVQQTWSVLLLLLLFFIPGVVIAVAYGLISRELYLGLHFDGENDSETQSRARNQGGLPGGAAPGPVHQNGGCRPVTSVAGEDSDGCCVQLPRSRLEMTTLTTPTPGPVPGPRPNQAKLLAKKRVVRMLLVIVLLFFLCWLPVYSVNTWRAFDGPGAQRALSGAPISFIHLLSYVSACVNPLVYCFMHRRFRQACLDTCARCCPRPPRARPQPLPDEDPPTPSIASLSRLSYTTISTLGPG
Assay: gastrin (CCK2) antagonist activity in an immature rat stomach assay
Details: pentagastrin dose-response curves, acid secretion, read-out: pKB rat stomach (converted)
Outline: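 Pentagastrin dose-response curves were run cumulatively 60 min after drug went into the serosal bath, itself after 120 min stabilisation. Preparation: perfused stomach from rats ca. 21 days old (33-50 g), with unbuffered saline under 100% O2 at 1 ml min^−1 and perfusate pH monitored.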

SMILES | Kb [µM]
O=C(CN1N=C(C2CCCCC2)c2ccccc2N(CC(=O)C2CCCCC2)C1=O)Nc1cccc(C(=O)O)c1 [Example 79, 3-{2-[5-Cyclohexyl-1-(2-cyclohexyl-2-oxo-ethyl)-2-oxo-1,2-dihydro-3H-1,3,4-benzotriazepin-3-yl]-acetylamino}-benzoic acid] | 0.00251
Cc1cccc2c1C(C1CCCCC1)=NN(CC(=O)Nc1cccc(C(=O)O)c1)C(=O)N2CC(=O)C(C)(C)C [Example 114, 3-{2-[5-Cyclohexyl-1-(3,3-dimethyl-2-oxo-butyl)-6-methyl-2-oxo-1,2-dihydro-3H-1,3,4-benzotriazepin-3-yl]-acetylamino}-benzoic acid] | 0.0355
Cc1cccc2c1C(C1CCCCC1)=NN(CC(=O)Nc1cccc(CC(=O)O)c1)C(=O)N2CC(=O)C(C)(C)C [Example 132, (3-{2-[5-Cyclohexyl-1-(3,3-dimethyl-2-oxo-butyl)-6-methyl-2-oxo-1,2-dihydro-3H-1,3,4-benzotriazepin-3-yl]-acetylamino}-phenyl)-acetic acid] | 0.0661
CNc1cc(NC)cc(NC(=O)CN2N=C(C3CCCCC3)c3ccccc3N(CC(=O)C(C)(C)C)C2=O)c1 [Example 104, N-(3,5-Bis-methylamino-phenyl)-2-[5-cyclohexyl-1-(3,3-dimethyl-2-oxo-butyl)-2-oxo-1,2-dihydro-3H-1,3,4-benzotriazepin-3-yl]-acetamide] | 0.0447
CNc1cc(NC(=O)CN2N=C(C3CCCCC3)c3ccccc3N(CC(=O)C(C)(C)C)C2=O)cc(C(=O)OC)c1 [Example 74, 3-{2-[5-Cyclohexyl-1-(3,3-dimethyl-2-oxo-butyl)-2-oxo-1,2-dihydro-3H-1,3,4-benzotriazepin-3-yl]-acetylamino}-5-methylamino-benzoic acid methyl ester] | 0.372
CN(C)c1cccc(NC(=O)CN2N=C(C3CCCCC3)c3ccccc3N(CC(=O)C(C)(C)C)C2=O)c1 [Example 33, 2-[5-Cyclohexyl-J-(3,3-dimethyl-2-oxo-butyl)-2-oxo-1,2-dihydro-3H-1,3,4-benzotriazepin-3-yl]-N-(3-dimethylamino-phenyl)-acetamide] | 0.0912
O=C(CN1N=C(C2CCCCC2)c2ccccc2N(CC(=O)C2CCCC2)C1=O)Nc1cccc(-c2csc(C(=O)O)n2)c1 [Example 137, 4-(3-{2-[5-Cyclohexyl-1-(2-cyclopentyl-2-oxo-ethyl)-2-oxo-1,2-dihydro-3H-1,3,4-benzotriazepin-3-yl]-acetylamino}-phenyl)-thiazole-2-carboxylic acid] | 0.00288
CC(C)(C)C(=O)CN1C(=O)N(CC(=O)Nc2cccc(SCC(=O)O)c2)N=C(C2CCCCC2)c2ccccc21 [Example 38, (3-{2-[5-Cyclohexyl-1-(3,3-dimethyl-2-oxo-butyl)-2-oxo-1,2-dihydro-3H-1,3,4-benzotriazepin-3-yl]-acetylamino}-phenylsulfanyl)-acetic acid] | 0.00661
CC1(C(=O)CN2C(=O)N(CC(=O)Nc3cccc(CC(=O)O)c3)N=C(C3CCCCC3)c3ccccc32)CCCC1 [Example 82, [3-(2-{5-Cyclohexyl-1-[2-(1-methyl-cyclopentyl)-2-oxo-ethyl]-2-oxo-1,2-dihydro-3H-1,3,4-benzotriazepin-3-yl}-acetylamino)-phenyl]-acetic acid] | 0.00955
CC(=O)N(CC(=O)O)c1cccc(NC(=O)CN2N=C(C3CCCCC3)c3ccccc3N(CC(=O)C(C)(C)C)C2=O)c1 [Example 65, [Acetyl-(3-{2-[5-cyclohexyl-1-(3,3-dimethyl-2-oxo-butyl)-2-oxo-1,2-dihydro-3H-1,3,4-benzotriazepin-3-yl]-acetylamino}-phenyl)-amino]-acetic acid] | 0.0525
CC(C)(C)C(=O)CN1C(=O)N(CC(=O)Nc2ccc3ccn(CC(=O)O)c3c2)N=C(C2CCCCC2)c2ccccc21 [Example 70, (6-{2-[5-Cyclohexyl-1-(3,3-dimethyl-2-oxo-butyl)-2-oxo-1,2-dihydro-3H-1,3,4-benzotriazepin-3-yl]-acetylamino}-indol-1-yl)-acetic acid] | 0.000851
O=C(CN1N=C(C2CCCCC2)c2ccccc2N(CC(=O)C23CC4CC(CC(C4)C2)C3)C1=O)Nc1cccc(C(=O)O)c1 [Example 17, 3-{2-[1-(2-Adamantan-1-yl-2-oxo-ethyl)-5-cyclohexyl-2-oxo-1,2-dihydro-3H-1,3,4-benzotriazepin-3-yl]-acetylamino}-benzoic acid] | 0.115
CC(C)(C)C(=O)CN1C(=O)N(CC(=O)Nc2cccc(N3CCCC3C(=O)O)c2)N=C(C2CCCCC2)c2ccccc21 (stereo in doubt) [Example 76, (R)-]-(3-{2-[5-Cyclohexyl-1-(3,3-dimethyl-2-oxobutyl)-2-oxo-1,2-dihydro-3H-1,3,4-benzotriazepin-3-yl]-acetylamino}-phenyl)-pyrrolidine-2-carboxylic acid] | 0.11
CN(CC(=O)O)c1cccc(NC(=O)CN2N=C(C3CCCCC3)c3ccccc3N(CC(=O)C(C)(C)C)C2=O)c1 [Example 96, [(3-{2-[5-Cyclohexyl-1-(3,3-dimethyl-2-oxo-butyl)-2-oxo-1,2-dihydro-3H-1,3,4-benzotriazepin-3-yl]-acetylamino}-phenyl)-methyl-amino]-acetic acid] | 0.00724
CNc1cccc(NC(=O)CN2N=C(c3ccccn3)c3ccccc3N(CC(=O)N3CCCC3)C2=O)c1 [Example 6] | 1.05
CNc1cccc(NC(=O)CN2N=C(c3ccccn3)c3ccccc3N(CC(=O)c3ccccc3C)C2=O)c1 [Example 7, N-(3-Methylamino-phenyl)-2-[2-oxo-1-(2-oxo-2-o-tolyl-ethyl)-5-pyridin-2-yl-1,2-dihydro-3H-1,3,4-benzotriazepin-3-yl]-acetamide] | 0.0501
CC(C)(C)C(=O)CN1C(=O)N(CC(=O)Nc2cccc3c2cnn3CC(=O)O)N=C(C2CCCCC2)c2ccccc21 [Example 130, (4-{2-[5-Cyclohexyl-1-(3,3-dimethyl-2-oxo-butyl)-2-oxo-1,2-dihydro-3H-1,3,4-benzotriazepin-3-yl]-acetylamino}-indazol-1-yl)-acetic acid] | 0.0447
CC(C)(C)C(=O)CN1C(=O)N(CC(=O)Nc2cccc(-c3cccc(C(=O)O)c3)c2)N=C(C2CCCCC2)c2ccccc21 [Example 151, 3′-{2-[5-Cyclohexyl-1-(3,3-dimethyl-2-oxo-butyl)-2-oxo-1,2-dihydro-3H-1,3,4-benzotriazepin-3-yl]-acetylamino}-biphenyl-3-carboxylic acid] | 0.0115
Cc1nc(-c2cccc(NC(=O)CN3N=C(C4CCCCC4)c4ccccc4N(CC(=O)C4CCCC4)C3=O)c2)cs1 [Example 136, 2-[5-Cyclohexyl-1-(2-cyclopentyl-2-oxo-ethyl)-2-oxo-1,2-dihydro-3H-1,3,4-benzotriazepin-3-yl]-N-[3-(2-methyl-thiazol-4-yl)-phenyl]-acetamide] | 0.00603
CC1(C(=O)CN2C(=O)N(CC(=O)Nc3cccc(C(=O)O)c3)N=C(C3CCCCC3)c3ccccc32)CCCC1 [Example 88, 3-(2-{5-Cyclohexyl-1-[2-(1-methyl-cyclopentyl)-2-oxo-ethyl]-2-oxo-1,2-dihydro-3H-1,3,4-benzotriazepin-3-yl}-acetylamino)-benzoic acid] | 0.0117
O=C(O)CCCc1cccc(NC(=O)CN2N=C(C3CCCCC3)c3ccccc3N(CC(=O)C3CCCC3)C2=O)c1 [Example 159] | 0.00126
CC(C)(C)C(=O)CN1C(=O)N(CC(=O)Nc2cccc(N3CCOCC3)c2)N=C(C2CCCCC2)c2ccccc21 [Example 123, 2-[5-Cyclohexyl-1-(3,3-dimethyl-2-oxo-butyl)-2-oxo-1,2-dihydro-3H-1,3,4-benzotriazepin-3-yl]-N-(3-morpholin-4-yl-phenyl)-acetamide] | 0.0182
CC(C)(C)C(=O)CN1C(=O)N(CC(=O)NCc2cccc(C(=O)O)c2)N=C(C2CCCCC2)c2ccccc21 [Example 45, 3-({2-[5-Cyclohexyl-1-(3,3-dimethyl-2-oxo-butyl)-2-oxo-1,2-dihydro-3H-1,3,4-benzotriazepin-3-yl]-acetylamino}-methyl)-benzoic acid] | 0.0933
CC(C)(C)C(=O)CN1C(=O)N(CC(=O)Nc2cccc(-c3nc(C(=O)O)co3)c2)N=C(C2CCCCC2)c2ccccc21 [Example 144, 2-(3-{2-[5-Cyclohexyl-1-(3,3-dimethyl-2-oxo-butyl)-2-oxo-1,2-dihydro-3H-1,3,4-benzotriazepin-3-yl]-acetylamino}-phenyl)-oxazole-4-carboxylic acid] | 0.00417
CC(C)(C)C(=O)CN1C(=O)N(CC(=O)Nc2ccc3cnn(CC(=O)O)c3c2)N=C(C2CCCCC2)c2ccccc21 [Example 99, (6-{2-[5-Cyclohexyl-1-(3,3-dimethyl-2-oxo-butyl)-2-oxo-1,2-dihydro-3H-1,3,4-benzotriazepin-3-yl]-acetylamino}-indazol-1-yl)-acetic acid] | 0.0141
CNc1cccc(NC(=O)NCN2N=C(c3ccccn3)c3ccccc3N(CC(=O)C(C)(C)C)C2=O)c1 [Example 8, 1-[1-(3,3-Dimethyl-2-oxo-butyl)-2-oxo-5-pyridin-2-yl-1,2-dihydro-3H-1,3,4-benzotriazepin-3-ylmethyl]-3-(3-methylamino-phenyl)-urea] | 0.263
CC(C)(C)C(=O)CN1C(=O)N(CC(=O)Nc2cccc(CC(=O)O)c2)N=C(C2CCCCC2)c2ccccc21 [Example 29, (3-{2-[5-Cyclohexyl-1-(3,3-dimethyl-2-oxo-butyl)-2-oxo-1,2-dihydro-3H-1,3,4-benzotriazepin-3-yl]-acetylamino}-phenyl)-acetic acid] | 0.0617

— patent US20050026911A1, “Benzotriazapinone salts and methods for using same” (priority 2003, published 2005)
